US20260224571A1, “AZACYCLOALKANE COMPOUND AND PHARMACEUTICAL COMPOSITION, AND USE THEREOF” (Prime Gene Therapeutics Co., Ltd., priority 2023, published 2026)

Assays:
ROCK2 = ROCK2 (Homo sapiens, UniProt O75116); test: ROCK2 kinase enzymatic activity (HTRF, STK2 substrate); type: biochemical; settings: ROCK2 kinase reacted at room temperature for 30 minutes
From the text: (§1) The kinase activity data was expressed by comparing the kinase activity of the test compound and that of the blank group (containing only DMSO), and the IC50 value was obtained by curve fitting using Prism software (GraphPad7.0).

ROCK1 = ROCK1 (Homo sapiens, UniProt Q13464); test: ROCK1 kinase enzymatic activity (HTRF, STK2 substrate); type: biochemical; settings: ROCK1 kinase reacted at room temperature for 20 minutes
From the text: as §1

Sequence of ROCK1 (Q13464 whole entry): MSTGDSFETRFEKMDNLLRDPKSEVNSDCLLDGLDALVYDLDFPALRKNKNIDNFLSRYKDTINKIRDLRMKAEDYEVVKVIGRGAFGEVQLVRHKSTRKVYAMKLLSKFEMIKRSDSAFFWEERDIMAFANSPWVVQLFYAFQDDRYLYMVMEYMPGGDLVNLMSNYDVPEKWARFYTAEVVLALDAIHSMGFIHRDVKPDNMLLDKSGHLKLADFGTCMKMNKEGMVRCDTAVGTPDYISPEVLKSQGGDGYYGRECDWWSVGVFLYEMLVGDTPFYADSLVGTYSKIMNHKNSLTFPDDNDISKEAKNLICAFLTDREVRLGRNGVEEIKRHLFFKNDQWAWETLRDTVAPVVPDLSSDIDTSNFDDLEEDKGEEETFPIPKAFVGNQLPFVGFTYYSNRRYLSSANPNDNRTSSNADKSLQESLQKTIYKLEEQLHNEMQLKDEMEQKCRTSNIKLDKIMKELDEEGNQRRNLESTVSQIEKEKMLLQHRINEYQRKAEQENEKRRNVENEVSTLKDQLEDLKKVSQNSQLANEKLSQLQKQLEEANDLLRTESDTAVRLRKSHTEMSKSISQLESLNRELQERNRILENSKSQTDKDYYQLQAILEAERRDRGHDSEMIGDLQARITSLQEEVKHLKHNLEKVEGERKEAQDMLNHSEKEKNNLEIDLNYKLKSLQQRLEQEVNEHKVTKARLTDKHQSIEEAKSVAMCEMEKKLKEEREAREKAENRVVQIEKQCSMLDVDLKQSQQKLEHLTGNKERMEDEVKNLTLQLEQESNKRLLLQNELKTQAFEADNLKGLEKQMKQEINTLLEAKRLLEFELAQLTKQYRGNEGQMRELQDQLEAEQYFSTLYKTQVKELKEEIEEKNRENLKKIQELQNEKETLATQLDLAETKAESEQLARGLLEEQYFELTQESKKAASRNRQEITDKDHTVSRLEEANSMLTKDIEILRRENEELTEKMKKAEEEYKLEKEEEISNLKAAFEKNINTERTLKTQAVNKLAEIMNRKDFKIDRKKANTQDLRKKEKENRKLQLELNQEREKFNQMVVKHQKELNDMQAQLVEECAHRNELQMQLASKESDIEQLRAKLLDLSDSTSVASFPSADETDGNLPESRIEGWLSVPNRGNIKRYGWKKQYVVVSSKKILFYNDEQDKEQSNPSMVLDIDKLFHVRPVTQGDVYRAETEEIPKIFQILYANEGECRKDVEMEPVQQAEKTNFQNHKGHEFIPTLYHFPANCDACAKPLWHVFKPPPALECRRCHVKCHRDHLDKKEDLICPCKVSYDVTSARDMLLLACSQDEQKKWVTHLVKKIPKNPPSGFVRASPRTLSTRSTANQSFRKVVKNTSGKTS
Sequence of ROCK2 (O75116 whole entry): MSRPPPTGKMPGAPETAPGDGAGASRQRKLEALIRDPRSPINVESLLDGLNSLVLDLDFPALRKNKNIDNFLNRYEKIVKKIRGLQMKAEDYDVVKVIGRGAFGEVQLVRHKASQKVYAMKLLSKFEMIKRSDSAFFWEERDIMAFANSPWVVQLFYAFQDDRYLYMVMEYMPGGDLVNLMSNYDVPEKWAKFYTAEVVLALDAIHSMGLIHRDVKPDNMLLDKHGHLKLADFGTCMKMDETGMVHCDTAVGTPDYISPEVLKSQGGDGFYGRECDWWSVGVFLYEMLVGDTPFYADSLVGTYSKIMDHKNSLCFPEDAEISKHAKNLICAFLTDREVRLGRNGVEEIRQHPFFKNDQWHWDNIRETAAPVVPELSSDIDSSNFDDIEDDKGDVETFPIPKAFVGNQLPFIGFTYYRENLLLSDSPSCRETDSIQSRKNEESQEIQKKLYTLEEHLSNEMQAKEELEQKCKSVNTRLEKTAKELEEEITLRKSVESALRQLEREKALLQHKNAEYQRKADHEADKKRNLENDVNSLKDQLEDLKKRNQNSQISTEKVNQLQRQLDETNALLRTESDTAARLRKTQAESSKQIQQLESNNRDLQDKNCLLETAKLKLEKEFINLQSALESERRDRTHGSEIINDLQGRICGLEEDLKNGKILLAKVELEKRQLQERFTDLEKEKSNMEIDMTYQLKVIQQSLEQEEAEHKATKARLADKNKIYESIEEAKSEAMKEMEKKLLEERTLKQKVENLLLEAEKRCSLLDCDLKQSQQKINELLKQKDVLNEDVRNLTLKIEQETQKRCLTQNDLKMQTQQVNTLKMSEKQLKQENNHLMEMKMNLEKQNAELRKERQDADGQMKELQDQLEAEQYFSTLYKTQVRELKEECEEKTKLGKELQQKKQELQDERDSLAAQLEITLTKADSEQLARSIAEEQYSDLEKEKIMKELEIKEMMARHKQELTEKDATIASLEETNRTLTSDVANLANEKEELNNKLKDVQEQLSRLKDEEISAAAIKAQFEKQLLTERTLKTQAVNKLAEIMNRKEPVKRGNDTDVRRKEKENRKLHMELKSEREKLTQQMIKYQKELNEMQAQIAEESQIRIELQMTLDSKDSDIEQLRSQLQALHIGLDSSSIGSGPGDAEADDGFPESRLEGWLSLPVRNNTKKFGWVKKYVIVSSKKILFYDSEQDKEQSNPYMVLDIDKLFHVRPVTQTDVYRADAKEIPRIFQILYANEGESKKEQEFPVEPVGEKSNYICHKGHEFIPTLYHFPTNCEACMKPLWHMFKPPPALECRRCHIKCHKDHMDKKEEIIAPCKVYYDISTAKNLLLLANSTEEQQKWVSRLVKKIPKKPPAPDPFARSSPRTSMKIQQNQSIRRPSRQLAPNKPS

SMILES | IC50 (ROCK2) | IC50 (ROCK1)
CCS(=O)(=O)N1CC(CC#N)(n2cc(-c3ncnc4[nH]ccc34)c(O)n2)C1 [Example 56, 2-(1-(ethylsulfonyl)-3-(3-hydroxy-4-(7H-pyrrolo[2,3-d]pyrimidin-4-yl)-1H-pyrazol-1-yl)azetidine-3-yl)acetonitrile] | > 100 nM | < 50 nM
N#CCC1(n2cc(-c3ncnc4[nH]ccc34)c(N)n2)CN(S(=O)(=O)NCCCl)C1 [Example 46, 3-(3-amino-4-(7H-pyrrolo[2,3-d]pyrimidin-4-yl)-1H-pyrazol-1-yl)-N-(2-chloroethyl)-3-(cyanomethyl)azetidine-1-sulfonamide] | < 5 nM | < 10 nM
CS(=O)(=O)N1CC(CC#N)(n2cc(-c3ncnc(NCC4CCOCC4)n3)c(N)n2)C1 [Example 73] | > 100 nM | > 100 nM
CS(=O)(=O)N1CC(CC#N)(n2cc(-c3cc(NCC4CCOCC4)ncn3)c(N)n2)C1 [Example 76, 2-(3-(3-amino-4-(6-((tetrahydro-2H-pyran-4-yl)methyl)amino)pyrimidin-4-yl-1H-pyrazol-1-yl)-1-(methylsulfonyl)azetidine-3-yl)acetonitrile] | > 100 nM | > 100 nM
N#CCC1(n2cc(-c3ncnc4[nH]ccc34)c(N)n2)CN(S(=O)(=O)NCCO)C1 [Example 44, 3-(3-amino-4-(7H-pyrrolo[2,3-d]pyrimidin-4-yl)-1H-pyrazol-1-yl)-3-(cyanomethyl)-N-(2-hydroxyethyl)azetidine-1-sulfonamide] | < 50 nM | < 50 nM
C[C@H](NC(=O)N1CC(CC#N)(n2cc(-c3ncnc4[nH]ccc34)c(N)n2)C1)C(F)(F)F [Example 16, (S)-3-(3-amino-4-(7H-pyrrolo[2,3-d]pyrimidin-4-yl)-1H-pyrazol-1-yl)-3-(cyanomethyl)-N-(1,1,1-trifluoropropan-2-yl)azetidine-1-formamide] | < 50 nM | < 50 nM
CCS(=O)(=O)N1CC(CC#N)(n2cc(-c3cc(Cl)cn4ncnc34)c(N)n2)C1 [Example 83, 2-(3-(3-amino-4-(6-chloro-[1,2,4]triazolo[1,5-a]pyridin-8-yl)-1H-pyrazol-1-yl)-1-(ethylsulfonyl)azetidine-3-yl)acetonitrile] | > 100 nM | > 100 nM
CS(=O)(=O)N1CC(CC#N)(n2cc(-c3cc(NC4CCOCC4)ncn3)c(N)n2)C1 [Example 75, 2-(3-(3-amino-4-(6-((tetrahydro-2H-pyran-4-yl)amino)pyrimidin-4-yl)-1H-pyrazol-1-yl)-1-(methylsulfonyl)azetidine-3-yl)acetonitrile] | > 100 nM | > 100 nM
CC(C)NC(=O)N1CC(CC#N)(n2cc(-c3ncnc4[nH]ccc34)c(N)n2)C1 [Example 15, 3-(3-amino-4-(7H-pyrrolo[2,3-d]pyrimidin-4-yl)-1H-pyrazol-1-yl)-3-(cyanomethyl)-N-isopropylaza-1-formamide] | < 50 nM | < 50 nM
CCS(=O)(=O)N1CC(CC#N)(n2cc(-c3cc(NC)nc4ccnn34)c(N)n2)C1 [Example 85, 2-(3-(3-amino-4-(5-(methylamino)pyrazolo[1,5-a]pyrimidin-7-yl)-1H-pyrazol-1-yl)-1-(ethylsulfonyl)azetidine-3-yl)acetonitrile] | > 100 nM | > 100 nM
CNc1cc(-c2cn(C3(CC#N)CN(S(C)(=O)=O)C3)nc2N)ncn1 [Example 77, 2-(3-(3-amino-4-(6-(methylamino)pyrimidin-4-yl)-1H-pyrazol-1-yl)-1-(methylsulfonyl)azetidine-3-yl)acetonitrile] | > 100 nM | > 100 nM
CCS(=O)(=O)N1CC(CC#N)(n2cc(-c3cc(Cl)nc4ccnn34)c(N)n2)C1 [Example 84, 2-(3-(3-amino-4-(5-chloropyrazolo[1,5-a]pyrimidin-7-yl)-1H-pyrazol-1-yl)-1-(ethylsulfonyl)azetidine-3-yl)acetonitrile] | > 100 nM | > 100 nM
CS(=O)(=O)N1CC(CC#N)(n2cc(-c3ccnc(NCc4ccccc4)n3)c(N)n2)C1 [Example 79, 2-(3-(3-amino-4-(2-(benzylamino)pyrimidin-4-yl)-1H-pyrazol-1-yl)-1-(methylsulfonyl)azetidine-3-yl)acetonitrile] | > 100 nM | > 100 nM
CS(=O)(=O)N1CC(CC#N)(n2cc(-c3ncnc(NCCO)n3)c(N)n2)C1 [Example 70, 2-(3-(3-amino-4-(4-((2-hydroxyethyl)amino)-1,3,5-triazin-2-yl)-1H-pyrazol-1-yl)-1-(methylsulfonyl)azetidine-3-yl)acetonitrile] | > 100 nM | > 100 nM
CS(=O)(=O)N1CC(CC#N)(n2cc(-c3cc(NCCO)ncn3)c(N)n2)C1 [Example 74, 2-(3-(3-amino-4-(6-((2-hydroxyethyl)amino)pyrimidin-4-yl)-1H-pyrazol-1-yl)-1-(methylsulfonyl)azetidine-3-yl)acetonitrile] | > 100 nM | > 100 nM
CC(C)S(=O)(=O)N1CC(CC#N)(n2cc(-c3ncnc4[nH]ccc34)c(C(N)=O)n2)C1 [Example 68, 1-(3-(cyanomethyl)-1-(isopropylsulfonyl)azetidine-3-yl)-4-(7H-pyrrolo[2,3-d]pyrimidin-4-yl)-1H-pyrazol-3-formamide] | > 100 nM | > 100 nM

Now from value to molecule:

IC50 (ROCK2) | IC50 (ROCK1) | SMILES
< 10 nM | < 10 nM | COC(=O)CNS(=O)(=O)N1CC(CC#N)(n2cc(-c3ncnc4[nH]ccc34)c(N)n2)C1 [Example 53, methyl (3-(3-amino-4-(7H-pyrrolo[2,3-d]pyrimidin-4-yl)-1H-pyrazol-1-yl)-3-(cyanomethyl)azetidine-1-ylsulfonyl)glycinate]
< 10 nM | < 10 nM | N#CCC1(n2cc(-c3ncnc4[nH]ccc34)c(N)n2)CN(C(=O)N[C@H]2CC2(F)F)C1 [Example 20, (S)-3-(3-amino-4-(7H-pyrrolo[2,3-d]pyrimidin-4-yl)-1H-pyrazol-1-yl)-3-(cyanomethyl)-N-(2,2-difluorocyclopropyl)azetidine-1-formamide]
< 5 nM | < 5 nM | N#CCC1(n2cc(-c3ncnc4[nH]ccc34)c(N)n2)CN(S(=O)(=O)N2CC2)C1 [Example 47, 2-(3-(3-amino-4-(7H-pyrrolo[2,3-d]pyrimidin-4-yl)-1H-pyrazol-1-yl)-1-(aziridin-1-ylsulfonyl)azetidine-3-yl)acetonitrile]
< 50 nM | < 50 nM | C[C@H](N)C(=O)N1CC(CC#N)(n2cc(-c3ncnc4[nH]ccc34)c(N)n2)C1 [Example 23, 2-(1-alaninyl-3-(3-amino-4-(7H-pyrrolo[2,3-d]pyrimidin-4-yl)-1H-pyrazol-1-yl)azetidine-3-yl)acetonitrile]
< 5 nM | < 5 nM | CNC(=O)N1CC(CC#N)(n2cc(-c3ncnc4[nH]ccc34)c(N)n2)C1 [Example 10, 3-(3-amino-4-{7H-pyrrolo[2,3-d]pyrimidin-4-yl}pyrazol-1-yl)-3-(cyanomethyl)-N-methylazetidine-1-formamide]
< 50 nM | < 50 nM | N#CCC1(n2cc(-c3ncnc4[nH]ccc34)c(N)n2)CN(S(=O)(=O)NCC(=O)O)C1 [Example 54]
< 10 nM | < 10 nM | N#CCC1(n2cc(-c3ncnc4[nH]ccc34)c(N)n2)CN(C(=O)C2(C(F)(F)F)CC2)C1 [Example 25, 2-(3-(3-amino-4-(7H-pyrrolo[2,3-d]pyrimidin-4-yl)-1H-pyrazol-1-yl)-1-(1-(trifluoromethyl)cyclopropane-1-carbonyl)azetidine-3-yl)acetonitrile]
< 10 nM | < 10 nM | N#CCC1(n2cc(-c3ncnc4[nH]ccc34)c(N)n2)CN(C(=O)[C@@H]2C[C@H]2C#N)C1 [Example 35, (1R, 2R)-2-(3-(3-amino-4-(7H-pyrrolo[2,3-d]pyrimidin-4-yl)-1H-pyrazol-1-yl)-3-(cyanomethyl)azetidine-1-carbonyl)cyclopropane-1-nitrile]
< 10 nM | < 10 nM | CNS(=O)(=O)N1CC(CC#N)(n2cc(-c3ncnc4[nH]ccc34)c(N)n2)C1 [Example 49, 3-(3-amino-4-(7H-pyrrolo[2,3-d]pyrimidin-4-yl)-1H-pyrazol-1-yl)-3-(cyanomethyl)-N-methylazetidine-1-sulfonamide]
< 10 nM | < 5 nM | N#CCC1(n2cc(-c3ncnc4[nH]ccc34)c(N)n2)CN(C(=O)C2CC(F)(F)C2)C1 [Example 32, 2-(3-(3-amino-4-(7H-pyrrolo[2,3-d]pyrimidin-4-yl)-1H-pyrazol-1-yl)-1-(3,3-difluorocyclobutane-1-carbonyl)azetidine-3-yl)acetonitrile]
< 10 nM | < 10 nM | N#CCN1CC(CC#N)(n2cc(-c3ncnc4[nH]ccc34)c(N)n2)C1 [Example 29, 2,2′-(3-(3-amino-4-(7H-pyrrolo[2,3-d]pyrimidin-4-yl)-1H-pyrazol-1-yl)azetidine-1,3-diyl)diacetonitrile]
< 5 nM | < 5 nM | CS(=N)(=O)N1CC(CC#N)(n2cc(-c3ncnc4[nH]ccc34)c(N)n2)C1 (centres unmarked) [Example 36, 2-(3-(3-amino-4-(7H-pyrrolo[2,3-d]pyrimidin-4-yl)-1H-pyrazol-1-yl)-1-(S-methysulfonylimino)azetidine-3-yl)acetonitrile]
< 10 nM | < 10 nM | N#CCC1(n2cc(-c3ncnc4[nH]ccc34)c(N)n2)CN(S(=O)(=O)CC(=O)NN)C1 [Example 9]
< 10 nM | < 5 nM | N#CCC(=O)N1CC(CC#N)(n2cc(-c3ncnc4[nH]ccc34)c(N)n2)C1 [Example 21, 3-(3-(3-amino-4-(7H-pyrrolo[2,3-d]pyrimidin-4-yl)-1H-pyrazol-1-yl)-3-(cyanomethyl)azetidine-1-yl]-3-oxopropionitrile]
< 10 nM | < 10 nM | C[C@H](O)C(=O)N1CC(CC#N)(n2cc(-c3ncnc4[nH]ccc34)c(N)n2)C1 [Example 33, (S)-2-(3-(3-amino-4-(7H-pyrrolo[2,3-d]pyrimidin-4-yl)-1H-pyrazol-1-yl)-1-(2-hydroxypropionyl)azetidine-3-yl)acetonitrile]
